How the values were obtained:
[1] = system: AP C3 convertase formation; assay: Phase 2a study: ex vivo serum Ba production; format: in vivo, human; conditions: 14-day treatment, patients A-F
Experimental: (§1) Systemic complement proteins were measured in serum and plasma including serum Ba, plasma Bb, serum C3, serum Factor D, serum C4, and % Fragment C3.

C3c = assay: Phase 2a study: urinary C3c (Hycult Human C3c Elisa Kit);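 further: urine from C3 glomerulopathy or IC-MPGN patients, C3c quantified by sandwich ELISA with absorbance read at 450 nm against a human C3c standard curve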
Experimental: To measure urinary C3c production, patient urine samples were tested utilizing the Hycult Biotech Human C3c Elisa Kit (HK368) for the quantitation of C3c in urine. […] Urine samples were thawed and centrifuged at 15,000 rpm for one minute. The supernatant was transferred to a fresh tube and diluted with C3c dilution buffer. Samples and standards were added to microtiter wells coated with antibodies recognizing human C3c and incubated at 1 hour at 15-25° C. Following incubation, the wells were washed 4 times with Wash Solution, with an incubation period of 1 minute each time. A biotinylated tracer antibody was added and used to bind to the captured human C3c. Streptavidin-peroxidase conjugate was then added to bind to the biotinylated tracer antibody. Tetramethylbenzidine (TMB) was then added to the Streptavidin-peroxidase conjugate. The enzyme reaction was stopped by the addition of oxalic acid. The absorbance at 450 nm was measured with a spectrophotometer. A standard curve was obtained by plotting the absorbance (linear) versus the corresponding concentrations of the human C3c standards (log). The human C3c concentration of samples, which are run concurrently with the standards, were determined from the standard curve.

Bb = assay: Phase 2a study: Bb levels in plasma; format: in vivo, human; conditions: 14-day treatment, patients A-F
Experimental: as §1

C3b/iC3b = assay: Phase 2a study: % fragment C3; format: in vivo, human; conditions: 14-day treatment, patients A-F
Experimental: as §1
C3 levels in serum were measured using a quantitative sandwich enzyme immunoassay technique. A monoclonal antibody specific for human C3 was pre-coated onto a micro-assay plate. Standards and samples were pipetted into the wells and any C3 present was bound by the immobilized antibody. After washing away any unbound substances, an enzyme-linked polyclonal antibody specific for human C3 was added to the wells. Following a wash to remove any unbound antibody-enzyme reagent, a substrate solution was added to the wells and color develops in proportion to the amount of C3 bound in the initial step. The color development was stopped and the intensity of the color was measured. […] Patients E and F show similar results.

SMILES: CC(=O)c1nn(CC(=O)N2C[C@H](F)C[C@H]2C(=O)Nc2cccc(Br)n2)c2ccc(-c3cnc(C)nc3)cc12 [Compound 1, (2S,4R)-1-(2-(3-acetyl-5-(2-methylpyrimidin-5-yl)-1H-indazol-1-yl)acetyl)-N-(6-bromopyridin-2-yl)-4-fluoropyrrolidine-2-carboxamide]
- Ex vivo serum Ba production [1]: inhibited
- uC3c (C3c; Patient A, 100 mg TID, Day 1 predose): 25.4 ng/mL
- uC3c (C3c; Patient A, 100 mg TID, Day 4): 15.2 ng/mL
- uC3c (C3c; Patient A, 100 mg TID, Day 7-0 Hour): 7.1 ng/mL
- uC3c (C3c; Patient A, 100 mg TID, Day 10): 9.9 ng/mL
- uC3c (C3c; Patient A, 100 mg TID, Day 14): 3.6 ng/mL
- uC3c (C3c; Patient A, 100 mg TID, Day 15 Taper): 6.8 ng/mL
- uC3c (C3c; Patient A, 100 mg TID, Day 16 Taper): 4.1 ng/mL
- uC3c (C3c; Patient A, 100 mg TID, Day 17 Taper): 8.5 ng/mL
- uC3c (C3c; Patient A, 100 mg TID, Day 21): 7.8 ng/mL
- uC3c (C3c; Patient A, 100 mg TID, Day 24): 11.4 ng/mL
- uC3c (C3c; Patient A, 100 mg TID, Day 28): 15.6 ng/mL
- uC3c (C3c; Patient A, 100 mg TID, Day 49): 32.8 ng/mL
- uC3c (C3c; Patient B, 100 mg TID, Day 1 predose): 771.1 ng/mL
- uC3c (C3c; Patient B, 100 mg TID, Day 4): 369.0 ng/mL
- uC3c (C3c; Patient B, 100 mg TID, Day 7-0 Hour): 289.2 ng/mL
- uC3c (C3c; Patient B, 100 mg TID, Day 10): 256.0 ng/mL
- uC3c (C3c; Patient B, 100 mg TID, Day 14): 462.7 ng/mL
- uC3c (C3c; Patient B, 100 mg TID, Day 15 Taper): 682.8 ng/mL
- uC3c (C3c; Patient B, 100 mg TID, Day 16 Taper): 534.1 ng/mL
- uC3c (C3c; Patient B, 100 mg TID, Day 17 Taper): 290.8 ng/mL
- uC3c (C3c; Patient B, 100 mg TID, Day 21): 513.5 ng/mL
- uC3c (C3c; Patient B, 100 mg TID, Day 24): 744.1 ng/mL
- uC3c (C3c; Patient B, 100 mg TID, Day 28): 285.3 ng/mL
- uC3c (C3c; Patient B, 100 mg TID, Day 49): >1000 ng/mL
- uC3c (C3c; Patient C, 200 mg TID, Day 1 predose): <1.6 ng/mL
- uC3c (C3c; Patient C, 200 mg TID, Day 4): <1.6 ng/mL
- uC3c (C3c; Patient C, 200 mg TID, Day 7-0 Hour): <1.6 ng/mL
- uC3c (C3c; Patient C, 200 mg TID, Day 10): <1.6 ng/mL
- uC3c (C3c; Patient C, 200 mg TID, Day 14): <1.6 ng/mL
- uC3c (C3c; Patient C, 200 mg TID, Day 15 Taper): <1.6 ng/mL
- uC3c (C3c; Patient C, 200 mg TID, Day 17 Taper): <1.6 ng/mL
- uC3c (C3c; Patient C, 200 mg TID, Day 21): <1.6 ng/mL
- uC3c (C3c; Patient C, 200 mg TID, Day 24): 2.1 ng/mL
- uC3c (C3c; Patient C, 200 mg TID, Day 28): <1.6 ng/mL
- uC3c (C3c; Patient C, 200 mg TID, Day 49): <1.6 ng/mL
- uC3c (C3c; Patient D, 200 mg TID, Day 1 predose): 8.8 ng/mL
- uC3c (C3c; Patient D, 200 mg TID, Day 4): 5.3 ng/mL
- uC3c (C3c; Patient D, 200 mg TID, Day 7-0 Hour): <1.6 ng/mL
- uC3c (C3c; Patient D, 200 mg TID, Day 10): <1.6 ng/mL
- uC3c (C3c; Patient D, 200 mg TID, Day 14): 3.7 ng/mL
- uC3c (C3c; Patient D, 200 mg TID, Day 15 Taper): 3.6 ng/mL
- uC3c (C3c; Patient D, 200 mg TID, Day 17 Taper): 4.8 ng/mL
- uC3c (C3c; Patient D, 200 mg TID, Day 21): 5.8 ng/mL
- uC3c (C3c; Patient D, 200 mg TID, Day 24): 5.1 ng/mL
- uC3c (C3c; Patient D, 200 mg TID, Day 28): 5.1 ng/mL
- uC3c (C3c; Patient D, 200 mg TID, Day 49): 7.0 ng/mL
- uC3c (C3c; Patient E, 200 mg TID, Day 1 predose): 159.6 ng/mL
- uC3c (C3c; Patient E, 200 mg TID, Day 4): 137.7 ng/mL
- uC3c (C3c; Patient E, 200 mg TID, Day 7-0 Hour): 168.2 ng/mL
- uC3c (C3c; Patient E, 200 mg TID, Day 10): 123.2 ng/mL
- uC3c (C3c; Patient E, 200 mg TID, Day 14): 64.4 ng/mL
- uC3c (C3c; Patient E, 200 mg TID, Day 15 Taper): 39.7 ng/mL
- uC3c (C3c; Patient E, 200 mg TID, Day 16 Taper): 46.8 ng/mL
- uC3c (C3c; Patient E, 200 mg TID, Day 17 Taper): 107.0 ng/mL
- uC3c (C3c; Patient E, 200 mg TID, Day 21): 41.2 ng/mL
- uC3c (C3c; Patient E, 200 mg TID, Day 24): 89.6 ng/mL
- uC3c (C3c; Patient E, 200 mg TID, Day 28): 97.8 ng/mL
- uC3c (C3c; Patient E, 200 mg TID, Day 49): 120.3 ng/mL
- uC3c (C3c; Patient F, 200 mg TID, Day 1 predose): 216.3 ng/mL
- uC3c (C3c; Patient F, 200 mg TID, Day 4): 63.0 ng/mL
- uC3c (C3c; Patient F, 200 mg TID, Day 7-0 Hour): 25.8 ng/mL
- uC3c (C3c; Patient F, 200 mg TID, Day 10): 43.9 ng/mL
- uC3c (C3c; Patient F, 200 mg TID, Day 14): 31.8 ng/mL
- uC3c (C3c; Patient F, 200 mg TID, Day 15 Taper): 24.2 ng/mL
- uC3c (C3c; Patient F, 200 mg TID, Day 16 Taper): 30.0 ng/mL
- uC3c (C3c; Patient F, 200 mg TID, Day 17 Taper): 32.4 ng/mL
- uC3c (C3c; Patient F, 200 mg TID, Day 21): 64.0 ng/mL
- uC3c (C3c; Patient F, 200 mg TID, Day 24): 34.4 ng/mL
- uC3c (C3c; Patient F, 200 mg TID, Day 28): 41.5 ng/mL
- uC3c (C3c; Patient F, 200 mg TID, Day 49): 154.5 ng/mL
- Urinary C3c levels (C3c; two-week treatment): reduced significantly
- Urinary C3c levels normalized to urinary creatinine or albumin (C3c; two-week treatment): reduced significantly
- Plasma Bb (Bb): reduced
- % fragment C3 (C3b/iC3b): reduced

— patent US20210215714A1, “COMPLEMENT ALTERNATIVE PATHWAY-ASSOCIATED NEPHROPATHY BIOMARKERS” (Achillion Pharmaceuticals, Inc., priority 2018, published 2021)
